According to BindingDB's records for doi:10.1021/jm00032a003 (Merck Research Laboratories, 1994):

Test: The compound was tested for binding activity against Cholecystokinin type B receptor from rat […] tissue using [125]BH CCK-8 as radioligand
`CC(C)CN1C(=O)[C@H](NC(=O)Nc2ccc(-c3nnn[nH]3)cc2)N=C(c2ccccc2)c2ccccc21` [1-((R)-1-Isobutyl-2-oxo-5-phenyl-2,3-dihydro-1H-benzo[e][1,4]diazepin-3-yl)-3-[4-(1H-tetrazol-5-yl)-phenyl]-urea] gave an IC50 of 23.8 nM.
`CC(C)CN1C(=O)[C@@H](NC(=O)Nc2ccc(-c3nnn[nH]3)cc2)N=C(c2ccccc2)c2ccccc21` [1-((S)-1-Isobutyl-2-oxo-5-phenyl-2,3-dihydro-1H-benzo[e][1,4]diazepin-3-yl)-3-[4-(1H-tetrazol-5-yl)-phenyl]-urea] showed an IC50 of 0.142 nM.
In the case of `CN1C(=O)[C@H](NC(=O)Nc2ccc(-c3nc(=O)o[nH]3)cc2)N=C(c2ccccc2)c2ccccc21` [1-((R)-1-Methyl-2-oxo-5-phenyl-2,3-dihydro-1H-benzo[e][1,4]diazepin-3-yl)-3-[4-(5-oxo-4,5-dihydro-[1,2,4]oxadiazol-3-yl)-phenyl]-urea], the IC50 is reported as 56.4 nM.
For `CN1C(=O)[C@H](NC(=O)Nc2ccc(C(=O)O)cc2)N=C(c2ccccc2)c2ccccc21`, the IC50 was 6.7 nM.
Molecule `CN1C(=O)[C@@H](NC(=O)Nc2ccc(-c3nc(=O)o[nH]3)cc2)N=C(c2ccccc2)c2ccccc21` [1-((S)-1-Methyl-2-oxo-5-phenyl-2,3-dihydro-1H-benzo[e][1,4]diazepin-3-yl)-3-[4-(5-oxo-4,5-dihydro-[1,2,4]oxadiazol-3-yl)-phenyl]-urea] has an IC50 of 0.266 nM.
For `CN1C(=O)[C@@H](NC(=O)Nc2ccc(-c3nnn[nH]3)cc2)N=C(c2ccccc2)c2ccccc21` [1-((S)-1-Methyl-2-oxo-5-phenyl-2,3-dihydro-1H-benzo[e][1,4]diazepin-3-yl)-3-[4-(1H-tetrazol-5-yl)-phenyl]-urea], the IC50 was 1.02 nM.
Work on `CN1C(=O)[C@H](NC(=O)Nc2ccc(-c3nnn[nH]3)cc2)N=C(c2ccccc2)c2ccccc21` [1-((R)-1-Methyl-2-oxo-5-phenyl-2,3-dihydro-1H-benzo[e][1,4]diazepin-3-yl)-3-[4-(1H-tetrazol-5-yl)-phenyl]-urea] yielded an IC50 of 250 nM.
